{"source": "ChEMBL document CHEMBL1681767", "about": "“Design and synthesis of tricyclic tetrahydroquinolines as a new series of nonsteroidal selective androgen receptor modulators (SARMs)” (Bioorg Med Chem Lett, 2011)", "key": {"Rattus norvegicus [1]": {"system": "Rattus norvegicus", "assay": "Recovery of […] weight in orchidectomized Sprague-Dawley rat at 3 mg/kg, sc relative to control", "assay_type": "functional", "conditions": "route subcutaneous"}, "Glucocorticoid receptor": {"target": "T1, Glucocorticoid receptor (Rattus norvegicus, UniProt P06536)", "T1 sequence (P06536 whole entry)": "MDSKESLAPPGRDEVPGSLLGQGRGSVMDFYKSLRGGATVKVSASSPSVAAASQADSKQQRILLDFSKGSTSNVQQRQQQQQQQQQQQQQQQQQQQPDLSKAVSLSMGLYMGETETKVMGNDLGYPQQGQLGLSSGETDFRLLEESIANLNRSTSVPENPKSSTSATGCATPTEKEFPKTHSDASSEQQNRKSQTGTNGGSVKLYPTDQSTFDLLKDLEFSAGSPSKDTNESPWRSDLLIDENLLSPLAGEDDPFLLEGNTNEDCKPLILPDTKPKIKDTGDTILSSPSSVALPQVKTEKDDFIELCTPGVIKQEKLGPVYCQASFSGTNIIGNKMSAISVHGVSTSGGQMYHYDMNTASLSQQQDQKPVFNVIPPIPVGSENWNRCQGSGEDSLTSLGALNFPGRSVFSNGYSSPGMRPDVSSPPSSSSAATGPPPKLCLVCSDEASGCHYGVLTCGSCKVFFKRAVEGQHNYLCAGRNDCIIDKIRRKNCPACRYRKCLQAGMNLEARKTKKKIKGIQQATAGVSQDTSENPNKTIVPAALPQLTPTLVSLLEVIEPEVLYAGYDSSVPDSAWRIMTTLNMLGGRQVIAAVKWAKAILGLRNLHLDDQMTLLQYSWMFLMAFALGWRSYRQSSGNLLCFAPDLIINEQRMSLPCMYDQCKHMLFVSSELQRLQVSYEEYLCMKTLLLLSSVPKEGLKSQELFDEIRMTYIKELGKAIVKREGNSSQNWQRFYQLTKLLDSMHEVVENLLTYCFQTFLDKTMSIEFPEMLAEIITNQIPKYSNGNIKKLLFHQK", "assay": "Displacement of [3H]dexamethasone from Sprague-Dawley rat GR by liquid scintillation counting"}, "Rattus norvegicus [2]": {"system": "Rattus norvegicus", "assay": "Recovery of levator ani muscle weight in orchidectomized Sprague-Dawley rat at 3 mg/kg, sc", "assay_type": "functional, organism-based", "design": "dose 3 mg/kg"}, "[3]": {"target": "T2, Mineralocorticoid receptor (Rattus norvegicus, UniProt P22199)", "T2 sequence (P22199 whole entry)": "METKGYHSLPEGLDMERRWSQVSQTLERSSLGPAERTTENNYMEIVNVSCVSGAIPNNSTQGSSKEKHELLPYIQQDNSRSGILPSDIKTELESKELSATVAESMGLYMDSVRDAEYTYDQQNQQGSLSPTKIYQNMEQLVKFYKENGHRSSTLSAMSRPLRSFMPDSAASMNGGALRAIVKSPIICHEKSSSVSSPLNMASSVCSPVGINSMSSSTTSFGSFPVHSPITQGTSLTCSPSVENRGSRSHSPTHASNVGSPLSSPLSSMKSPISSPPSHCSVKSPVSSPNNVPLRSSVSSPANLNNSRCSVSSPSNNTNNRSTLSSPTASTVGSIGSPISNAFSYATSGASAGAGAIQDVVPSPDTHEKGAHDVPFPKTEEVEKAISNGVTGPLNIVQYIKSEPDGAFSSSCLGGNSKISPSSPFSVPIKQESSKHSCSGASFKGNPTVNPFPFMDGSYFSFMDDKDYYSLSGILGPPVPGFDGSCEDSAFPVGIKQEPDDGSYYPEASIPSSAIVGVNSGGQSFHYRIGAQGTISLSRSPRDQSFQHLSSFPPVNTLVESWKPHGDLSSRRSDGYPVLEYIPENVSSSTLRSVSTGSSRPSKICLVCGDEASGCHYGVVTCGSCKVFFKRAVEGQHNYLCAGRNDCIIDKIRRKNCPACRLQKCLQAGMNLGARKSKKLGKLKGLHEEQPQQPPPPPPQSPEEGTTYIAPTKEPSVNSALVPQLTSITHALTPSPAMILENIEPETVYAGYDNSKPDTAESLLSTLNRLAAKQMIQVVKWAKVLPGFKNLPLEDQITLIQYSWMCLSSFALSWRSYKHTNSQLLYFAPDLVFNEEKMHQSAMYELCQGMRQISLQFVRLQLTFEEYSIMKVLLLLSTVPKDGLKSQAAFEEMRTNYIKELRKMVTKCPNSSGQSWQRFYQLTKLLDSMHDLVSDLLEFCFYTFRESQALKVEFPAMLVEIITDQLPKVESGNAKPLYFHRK", "assay": "Displacement of [3H]aldosterone from Sprague-Dawley rat MR by liquid scintillation counting"}, "Progesterone receptor": {"target": "T3, Progesterone receptor (Oryctolagus cuniculus, UniProt P06186)", "T3 sequence (P06186 whole entry)": "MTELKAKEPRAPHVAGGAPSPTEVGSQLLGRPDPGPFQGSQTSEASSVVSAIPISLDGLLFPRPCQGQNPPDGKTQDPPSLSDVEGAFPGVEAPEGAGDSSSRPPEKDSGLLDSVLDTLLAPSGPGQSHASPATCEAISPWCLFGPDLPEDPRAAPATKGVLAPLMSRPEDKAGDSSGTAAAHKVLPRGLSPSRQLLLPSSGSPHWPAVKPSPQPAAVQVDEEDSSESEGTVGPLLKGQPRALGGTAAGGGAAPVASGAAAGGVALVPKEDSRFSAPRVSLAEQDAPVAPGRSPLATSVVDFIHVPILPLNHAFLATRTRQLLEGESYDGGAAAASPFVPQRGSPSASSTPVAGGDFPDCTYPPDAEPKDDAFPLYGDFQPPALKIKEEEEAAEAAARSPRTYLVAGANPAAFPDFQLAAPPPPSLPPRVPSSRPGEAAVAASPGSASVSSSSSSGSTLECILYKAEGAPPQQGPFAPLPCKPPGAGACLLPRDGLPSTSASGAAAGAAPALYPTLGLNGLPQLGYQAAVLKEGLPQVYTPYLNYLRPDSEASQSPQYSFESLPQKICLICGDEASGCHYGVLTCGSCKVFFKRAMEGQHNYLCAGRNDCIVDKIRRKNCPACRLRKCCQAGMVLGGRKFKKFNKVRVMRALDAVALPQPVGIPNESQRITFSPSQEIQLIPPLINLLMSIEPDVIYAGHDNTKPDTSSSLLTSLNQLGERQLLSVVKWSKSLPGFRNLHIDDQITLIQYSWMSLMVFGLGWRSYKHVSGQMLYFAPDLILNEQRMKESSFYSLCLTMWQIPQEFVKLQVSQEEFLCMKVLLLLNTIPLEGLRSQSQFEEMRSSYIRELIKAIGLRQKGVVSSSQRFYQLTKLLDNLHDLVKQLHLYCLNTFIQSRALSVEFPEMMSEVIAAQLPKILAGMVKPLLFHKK", "assay": "Displacement of [3H]progesterone from rabbit PR by liquid scintillation counting"}, "[4]": {"assay": "Displacement of [3H]17-beta-estradiol from rabbit ER by liquid scintillation counting", "design": "species or system Oryctolagus cuniculus"}}, "note": "Activity calls are given as the source filed them. No cut-off for these calls is given here.", "data": [{"smiles": "CC(C)(CO)[C@H]1Nc2ccc([N+](=O)[O-])cc2[C@H]2C=CC[C@H]21", "values": [{"measurement": "Activity", "setting": "Rattus norvegicus [1]", "result": 50, "unit": "%"}, {"measurement": "IC50", "setting": "Glucocorticoid receptor", "result": 18, "unit": "µM"}, {"measurement": "Activity", "setting": "Rattus norvegicus [2]", "result": "Active"}, {"measurement": "IC50", "setting": "[3]", "result": 6.3, "unit": "µM"}, {"measurement": "IC50", "setting": "Progesterone receptor", "result": 0.13, "unit": "µM"}, {"measurement": "IC50", "setting": "[4]", "result": "> 1000", "unit": "µM"}]}]}
